Test results as given in patent US20020137929A1, “1 - (3-heterocyclylphenyl) isothiourea, -isourea, -guanidine and -amidine herbicidal agents” (Intellectual Property Department, BASF Aktiengesellschaft, priority 1998, published 2002).

How the values were obtained:
ABUTH (Velvetleaf) = experiment: Postemergence herbicidal evaluation; type: in vivo, Abutilon theophrasti; settings: for ABUTH herbicidal rating / herbicidal rating ABUTH: postemergence
How it was run: (§1)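 Seedlings grown about two weeks were sprayed at 40 psi with compound dispersed in 50/50 acetone/water plus 0.5% TWEEN 20, at about 0.0156 to 0.500 kg/ha. Plants were kept in the greenhouse and scored 4–5 weeks later on a 0–9 visual scale against untreated controls.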

GALAP (Galium) [1] = experiment: Postemergence herbicidal evaluation; type: in vivo, Galium aparine; settings: for GALAP herbicidal rating / herbicidal rating GALAP: postemergence
How it was run: as §1

GALAP (Galium) [2] = experiment: Preemergence herbicidal evaluation; type: in vivo, Galium aparine; settings: rated 4-5 weeks after treatment; for GALAP rating: preemergence, 0-9 scale
How it was run: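 Herbicidal effect scored visually, 0-9, at 4 to 5 weeks against a control; compound applied preemergence by aqueous acetone spray to seeded soil at about 0.0156 to 0.500 kg/ha.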

Row | Compound | ABUTH herbicidal rating (ABUTH (Velvetleaf); rate 0.0158 kg/ha) | ABUTH herbicidal rating (ABUTH (Velvetleaf); rate 0.0315 kg/ha) | ABUTH herbicidal rating (ABUTH (Velvetleaf); rate 0.0630 kg/ha) | GALAP herbicidal rating (GALAP (Galium) [1]; rate 0.0158 kg/ha) | GALAP herbicidal rating (GALAP (Galium) [1]; rate 0.0315 kg/ha) | GALAP herbicidal rating (GALAP (Galium) [1]; rate 0.0630 kg/ha) | Preemergence herbicidal rating GALAP (GALAP (Galium) [2]; rate 0.0313 kg/ha) | Preemergence herbicidal rating GALAP (GALAP (Galium) [2]; rate 0.0625 kg/ha) | Preemergence herbicidal rating GALAP (GALAP (Galium) [2]; rate 0.1250 kg/ha) | Preemergence herbicidal rating GALAP (GALAP (Galium) [2]; rate 0.2500 kg/ha) | Preemergence herbicidal rating GALAP (GALAP (Galium) [2]; rate 0.0156 kg/ha) | other results
1 | CCOC(=O)C(c1ccc(Cl)cc1)N1C(=O)CSC1=Nc1cc(-n2c(=O)cc(C(F)(F)F)n(C)c2=O)c(F)cc1Cl (racemic) [Compound 79, Ethyl α-(p-chlorophenyl)-2-{{2-chloro-5-[3,6-dihydro-3-methyl-2,6-dioxo-4-(trifluoromethyl)-1(2H)-pyrimidinyl]-4-fluorophenyl}imino}-4-oxo-3-thiazolidineacetate, DL-] | 9.0 | 9.0 | 9.0 | 1.0 | 2.0 | 1.0 | 0.0 | 0.0 | 0.0 | 0.0 | – | –
2 | CCOC(=O)CN1CCSC1=Nc1cc(-n2nc(C)n(C(F)F)c2=O)c(F)cc1Cl [Compound 36] | – | – | – | – | – | – | – | 9.0 | 9.0 | 9.0 | – | Postemergence herbicidal rating ABUTH (ABUTH (Velvetleaf); Rate 0.0158 kg/ha): 9.0; Postemergence herbicidal rating ABUTH (ABUTH (Velvetleaf); Rate 0.0315 kg/ha): 9.0; Postemergence herbicidal rating ABUTH (ABUTH (Velvetleaf); Rate 0.0630 kg/ha): 9.0; Postemergence herbicidal rating GALAP (GALAP (Galium) [1]; Rate 0.0158 kg/ha): 0.0; Postemergence herbicidal rating GALAP (GALAP (Galium) [1]; Rate 0.0315 kg/ha): 1.0; Postemergence herbicidal rating GALAP (GALAP (Galium) [1]; Rate 0.0630 kg/ha): 4.0
3 | Cn1c(C(F)(F)F)cc(=O)n(-c2cc(N=C3SCC(=O)N3[C@H](Cc3ccccc3)C(=O)O)c(Cl)cc2F)c1=O [Compound 69, α-Benzyl-2-{{2-chloro-5-[3,6-dihydro-3-methyl-2,6-dioxo-4-(trifluoromethyl)-1(2H)-pyrimidinyl]-4-fluorophenyl}imino}-4-oxo-3-thiazolidineacetic acid, D-] | 9.0 | 9.0 | 9.0 | 0.0 | 1.0 | 5.0 | 0.0 | 0.0 | 1.0 | 1.0 | 0.0 | –
4 | COC(=O)[C@H](Cc1ccccc1)N1C(=O)CS/C1=N/c1cc(-n2c(=O)cc(C(F)(F)F)n(C)c2=O)c(F)cc1Cl [Compound 72, Methyl α-benzyl-2-{{2-chloro-5-[3,6-dihydro-3-methyl-2,6-dioxo-4-(trifluoromethyl)-1(2H)-pyrimidinyl]-4-fluorophenyl]imino}-4-oxo-3-thiazolidineacetate, L-] | 9.0 | 9.0 | 9.0 | 6.0 | 7.0 | 9.0 | 0.0 | 0.0 | 0.0 | 9.0 | 0.0 | –
5 | Cn1c(C(F)(F)F)cc(=O)n(-c2cc(N=C3SCC(=O)N3C3CCOC3=O)c(Cl)cc2F)c1=O (centres unmarked) [Compound 73] | 9.0 | 9.0 | 9.0 | 3.0 | 7.0 | 6.0 | 0.0 | 0.0 | 4.0 | 9.0 | 0.0 | –
6 | CCOC(=O)[C@H](C)N1C(=O)CSC1=Nc1cc(-n2c(=O)cc(C(F)(F)F)n(C)c2=O)c(F)cc1Cl [Compound 76, Ethyl 2-{{2-chloro-5-[3,6-dihydro-3-methyl-2,6-dioxo-4-(trifluoromethyl)-1(2H)-pyrimidinyl]-4-fluorophenyl}imino}-α-methyl-4-oxo-3-thiazolidineacetate, L-] | 9.0 | 9.0 | 9.0 | 1.0 | 6.0 | 7.0 | 0.0 | 0.0 | 1.0 | 9.0 | 0.0 | –
7 | COC(=O)[C@H](Cc1ccc([N+](=O)[O-])cc1)N1C(=O)CSC1=Nc1cc(-n2c(=O)cc(C(F)(F)F)n(C)c2=O)c(F)cc1Cl [Compound 78, Methyl 2-{{2-chloro-5-[3,6-dihydro-3-methyl-2,6-dioxo-4-(trifluoromethyl)-1(2H)-pyrimidinyl]-4-fluorophenyl}imino}-4-oxo-α-(p-nitrobenzyl)-3-thiazolidineacetate, L-] | 7.0 | 9.0 | 9.0 | 1.0 | 1.0 | 2.0 | 0.0 | 0.0 | 3.0 | 2.0 | 0.0 | –
8 | CCOC(=O)CN1C(=O)C(CC(=O)OCCF)SC1=Nc1cc(-n2c(=O)cc(C(F)(F)F)n(C)c2=O)c(F)cc1Cl (centres unmarked) [Compound 82, 2-{{2-Chloro-5-[3,6-dihydro-3-methyl-2,6-dioxo-4-(trifluoromethyl)-1(2H)-pyrimidinyl]-4-fluoro-phenyl}imino}-4-oxo-3,5-thiazolidinediacetic acid, 3-ethyl 2-fluoroethyl ester] | 9.0 | 9.0 | 9.0 | 4.0 | 9.0 | 9.0 | – | – | – | – | – | GALAP rating (GALAP (Galium) [2]; 0.0156 kg/ha): 0.0; GALAP rating (GALAP (Galium) [2]; 0.0313 kg/ha): 0.0; GALAP rating (GALAP (Galium) [2]; 0.0625 kg/ha): 0.0; GALAP rating (GALAP (Galium) [2]; 0.1250 kg/ha): 9.0; GALAP rating (GALAP (Galium) [2]; 0.2500 kg/ha): 9.0
9 | C=CCOC(=O)CN1C(=O)CSC1=Nc1cc(-n2c(=O)cc(C(F)(F)F)n(C)c2=O)c(F)cc1Cl [Compound 106, Allyl 2-{{2-chloro-5-[3,6-dihydro-3-methyl-2,6-dioxo-4-(trifluoromethyl)-1(2H)-pyrimidinyl]-4-fluorophenyl}imino}-4-oxo-3-thiazolidineacetate] | – | – | – | – | – | – | – | – | – | – | 1.0 | herbicidal rating ABUTH (ABUTH (Velvetleaf); rate 0.0158 kg/ha): 9.0; herbicidal rating ABUTH (ABUTH (Velvetleaf); rate 0.0315 kg/ha): 9.0; herbicidal rating ABUTH (ABUTH (Velvetleaf); rate 0.0630 kg/ha): 9.0; herbicidal rating GALAP (GALAP (Galium) [1]; rate 0.0158 kg/ha): 1.0; herbicidal rating GALAP (GALAP (Galium) [1]; rate 0.0315 kg/ha): 1.0; herbicidal rating GALAP (GALAP (Galium) [1]; rate 0.0630 kg/ha): 1.0; GALAP rating (GALAP (Galium) [2]; 0.0313 kg/ha): 2.0; GALAP rating (GALAP (Galium) [2]; 0.0625 kg/ha): 3.0; GALAP rating (GALAP (Galium) [2]; 0.1250 kg/ha): 6.0; GALAP rating (GALAP (Galium) [2]; 0.2500 kg/ha): 7.0
10 | COCCOC(=O)CN1C(=O)CSC1=Nc1cc(-n2c(=O)cc(C(F)(F)F)n(C)c2=O)c(F)cc1Cl [Compound 107, 2-Methoxyethyl 2-{{2-chloro-5-[3,6-dihydro-3-methyl-2,6-dioxo-4-(trifluoromethyl)-1(2H)-pyrimidinyl]-4-fluorophenyl}imino}-4-oxo-3-thiazolidineacetate] | – | – | – | – | – | – | 1.0 | 1.0 | 7.0 | 7.0 | – | herbicidal rating ABUTH (ABUTH (Velvetleaf); rate 0.0158 kg/ha): 9.0; herbicidal rating ABUTH (ABUTH (Velvetleaf); rate 0.0315 kg/ha): 7.0; herbicidal rating ABUTH (ABUTH (Velvetleaf); rate 0.0630 kg/ha): 9.0; herbicidal rating GALAP (GALAP (Galium) [1]; rate 0.0158 kg/ha): 0.0; herbicidal rating GALAP (GALAP (Galium) [1]; rate 0.0315 kg/ha): 0.0; herbicidal rating GALAP (GALAP (Galium) [1]; rate 0.0630 kg/ha): 0.0
11 | CCCCOC(=O)CN1C(=O)CSC1=Nc1cc(-n2c(=O)cc(C(F)(F)F)n(C)c2=O)c(F)cc1Cl [Compound 111] | – | – | – | – | – | – | 0.0 | 0.0 | 6.0 | 7.0 | 0.0 | herbicidal rating ABUTH (ABUTH (Velvetleaf); rate 0.0158 kg/ha): 7.0; herbicidal rating ABUTH (ABUTH (Velvetleaf); rate 0.0315 kg/ha): 9.0; herbicidal rating ABUTH (ABUTH (Velvetleaf); rate 0.0630 kg/ha): 9.0; herbicidal rating GALAP (GALAP (Galium) [1]; rate 0.0158 kg/ha): 0.0; herbicidal rating GALAP (GALAP (Galium) [1]; rate 0.0315 kg/ha): 0.0; herbicidal rating GALAP (GALAP (Galium) [1]; rate 0.0630 kg/ha): 1.0
12 | Cn1c(C(F)(F)F)cc(=O)n(-c2cc(N=C3SCC(=O)N3Cc3ccco3)c(Cl)cc2F)c1=O [Compound 122, 3-{4-Chloro-2-fluoro-5-[(3-furfuryl-4-oxo-2-thiazolidinylidene)amino]phenyl}-1-methyl-6-(trifluoromethyl)-2,4(1H,3H)-pyrimidinedione] | – | – | – | – | – | – | 2.0 | 3.0 | 4.0 | 4.0 | 3.0 | herbicidal rating ABUTH (ABUTH (Velvetleaf); rate 0.0156 kg/ha): 9.0; herbicidal rating ABUTH (ABUTH (Velvetleaf); rate 0.0313 kg/ha): 9.0; herbicidal rating ABUTH (ABUTH (Velvetleaf); rate 0.0625 kg/ha): 9.0; herbicidal rating ABUTH (ABUTH (Velvetleaf); rate 0.1250 kg/ha): 9.0; herbicidal rating GALAP (GALAP (Galium) [1]; rate 0.0156 kg/ha): 2.0; herbicidal rating GALAP (GALAP (Galium) [1]; rate 0.0313 kg/ha): 2.0; herbicidal rating GALAP (GALAP (Galium) [1]; rate 0.0625 kg/ha): 4.0; herbicidal rating GALAP (GALAP (Galium) [1]; rate 0.1250 kg/ha): 6.0; Preemergence herbicidal rating GALAP (GALAP (Galium) [2]; rate 0.5000 kg/ha): 6.0
